Measured values as given in patent publication US20190328691A1, “ANTIBIOTIC THERAPY” (Boulos & Cooper Pharmaceuticals Pty Ltd, priority 2015, published 2019).
Where two headings read alike, the source gives them in different places.

Assays:
[1] = tested on: Staphylococcus aureus (ATCC 29213); experiment: Checkerboard combination / MIC assay with S. aureus ATCC 29213; type: cell-based; conditions: S. aureus ATCC 29213; for MIC: Staphylococcus aureus, read-out: MIC of antibiotic alone
Method in brief: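 CLSI broth microdilution checkerboard in CAMHB, final inoculum 5×10^5 CFU/mL, 2% DMSO. Ramizol or Chlopam (11-point 2-fold) crossed with commercial antibiotics (7-point), each starting at 4× MIC; synergy assessed by FIC index (sum of MIC-in-combination/MIC-alone ratios; ≤0.5 synergy, >4 antagonism).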

[2] = tested on: Staphylococcus aureus (BAA-1717); experiment: Checkerboard combination / MIC assay with S. aureus BAA-1717 (MRSA); type: cell-based; conditions: for Effect of individual antibiotic combinations: S. aureus BAA-1717
Method in brief: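 CLSI broth microdilution checkerboard in CAMHB (5×10^5 CFU/mL, 2% DMSO final). Ramizol or Chlopam was tested in 11-point two-fold series against 7-point antibiotic titrations, starting at 4× MIC.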

- MIC of antibiotic in combination with Chlopam ([1]; Chlopam 0.003906 μg/mL): 0.5 µg/mL
- MIC of antibiotic in combination with Chlopam ([1]; Chlopam 0.0078125 μg/mL): 0.5 µg/mL
- MIC of antibiotic in combination with Chlopam ([1]; Chlopam 0.015625 μg/mL): 0.5 µg/mL
- MIC of antibiotic in combination with Chlopam ([1]; Chlopam 0.25 μg/mL): 0.25 µg/mL
- MIC of antibiotic in combination with Ramizol ([1]; Ramizol 0.015625 μg/mL): 0.5 µg/mL
- MIC of antibiotic in combination with Ramizol ([1]; Ramizol 0.03125 μg/mL): 0.5 µg/mL
- MIC of antibiotic in combination with Ramizol ([1]; Ramizol 0.0625 μg/mL): 0.5 µg/mL
- MIC of antibiotic in combination with Ramizol ([1]; Ramizol 0.125 μg/mL): 0.5 µg/mL
- MIC of antibiotic in combination with Ramizol ([1]; Ramizol 0.25 μg/mL): 0.5 µg/mL
- MIC ([1]; ATCC29213, Table 4, checkerboard series with Chlopam): 0.5 µg/mL
- MIC ([1]; ATCC29213, Table 7, checkerboard series with Ramizol): 0.5 µg/mL
- MIC of antibiotic in combination with Chlopam ([2]; Chlopam 0.001953 μg/mL, S. aureus ATCC BAA-1717): 0.5 µg/mL
- MIC of antibiotic in combination with Chlopam ([2]; Chlopam 0.003906 μg/mL, S. aureus ATCC BAA-1717): 0.5 µg/mL
- MIC of antibiotic in combination with Chlopam ([2]; Chlopam 0.0078125 μg/mL, S. aureus ATCC BAA-1717): 0.5 µg/mL
- MIC of antibiotic in combination with Chlopam ([2]; Chlopam 0.015625 μg/mL, S. aureus ATCC BAA-1717): 0.5 µg/mL
- MIC of antibiotic in combination with Chlopam ([2]; Chlopam 0.5 μg/mL, S. aureus ATCC BAA-1717): 0.016 µg/mL
- MIC of antibiotic in combination with Ramizol ([2]; Ramizol 0.015625 μg/mL, S. aureus ATCC BAA-1717): 0.5 µg/mL
- MIC of antibiotic in combination with Ramizol ([2]; Ramizol 0.03125 μg/mL, S. aureus ATCC BAA-1717): 0.5 µg/mL
- MIC of antibiotic in combination with Ramizol ([2]; Ramizol 0.0625 μg/mL, S. aureus ATCC BAA-1717): 0.5 µg/mL
- MIC of antibiotic in combination with Ramizol ([2]; Ramizol 0.125 μg/mL, S. aureus ATCC BAA-1717): 0.5 µg/mL
- MIC of antibiotic in combination with Ramizol ([2]; Ramizol 4 μg/mL, S. aureus ATCC BAA-1717): 0.016 µg/mL
- MIC ([2]; Staphylococcus aureus, ATCC BAA-1717 / BAA-1717, Table 4, checkerboard series with Chlopam, S. aureus ATCC BAA-1717, read-out: MIC of antibiotic alone): 0.5 µg/mL
Compound: C/C(=C\C(=O)OCCCCCCCCC(=O)O)C[C@@H]1OC[C@H](C[C@@H]2O[C@H]2[C@@H](C)[C@H](C)O)[C@@H](O)[C@H]1O [Mupirocin]
- FICI of combination with Chlopam ([1]; Chlopam 0.003906 μg/mL + labelled antibiotic at MIC of same cell): 1.0
- FICI of combination with Chlopam ([1]; Chlopam 0.0078125 μg/mL + labelled antibiotic at MIC of same cell): 1.0
- FICI of combination with Chlopam ([1]; Chlopam 0.015625 μg/mL + labelled antibiotic at MIC of same cell): 1.0
- FICI of combination with Chlopam ([1]; Chlopam 0.25 μg/mL + labelled antibiotic at MIC of same cell): 1.0
- Effect of individual antibiotic combinations ([1]; Chlopam and mupirocin: 0.003901 and 0.5, 0.0078125 and 0.5, 0.015625 and 0.5, 0.25 and 0.25 μg/mL): additive effect
- FICI of combination with Ramizol ([1]; Ramizol 0.015625 μg/mL + labelled antibiotic at MIC of same cell): 1.0
- FICI of combination with Ramizol ([1]; Ramizol 0.03125 μg/mL + labelled antibiotic at MIC of same cell): 1.0
- FICI of combination with Ramizol ([1]; Ramizol 0.0625 μg/mL + labelled antibiotic at MIC of same cell): 1.0
- FICI of combination with Ramizol ([1]; Ramizol 0.125 μg/mL + labelled antibiotic at MIC of same cell): 1.0
- FICI of combination with Ramizol ([1]; Ramizol 0.25 μg/mL + labelled antibiotic at MIC of same cell): 1.0
- Effect of individual antibiotic combinations ([1]; Ramizol and mupirocin: 0.015625 and 0.5, 0.03125 and 0.5, 0.0625 and 0.5, 0.125 and 0.5, 0.25 and 0.5 μg/mL): additive effect
- mean FICI of combination with Chlopam ([1]; labelled antibiotic + Chlopam, mean of all pairwise combinations): 1.1
- mean FICI of combination with Ramizol ([1]; labelled antibiotic + Ramizol, mean of all pairwise combinations): 1.1
- FICI of combination with Chlopam ([2]; Chlopam 0.001953 μg/mL + labelled antibiotic at MIC of same cell, S. aureus ATCC BAA-1717): 1.0
- FICI of combination with Chlopam ([2]; Chlopam 0.003906 μg/mL + labelled antibiotic at MIC of same cell, S. aureus ATCC BAA-1717): 1.0
- FICI of combination with Chlopam ([2]; Chlopam 0.0078125 μg/mL + labelled antibiotic at MIC of same cell, S. aureus ATCC BAA-1717): 1.0
- FICI of combination with Chlopam ([2]; Chlopam 0.015625 μg/mL + labelled antibiotic at MIC of same cell, S. aureus ATCC BAA-1717): 1.0
- FICI of combination with Chlopam ([2]; Chlopam 0.5 μg/mL + labelled antibiotic at MIC of same line, S. aureus ATCC BAA-1717): 1.0
- Effect of individual antibiotic combinations ([2]; Chlopam and mupirocin: 0.001953 and 0.5, 0.003901 and 0.5, 0.0078125 and 0.5, 0.015625 and 0.5, 0.5 and 0.016 μg/mL): additive effect
- FICI of combination with Ramizol ([2]; Ramizol 0.015625 μg/mL + labelled antibiotic at MIC of same cell, S. aureus ATCC BAA-1717): 1.0
- FICI of combination with Ramizol ([2]; Ramizol 0.03125 μg/mL + labelled antibiotic at MIC of same cell, S. aureus ATCC BAA-1717): 1.0
- FICI of combination with Ramizol ([2]; Ramizol 0.0625 μg/mL + labelled antibiotic at MIC of same cell, S. aureus ATCC BAA-1717): 1.0
- FICI of combination with Ramizol ([2]; Ramizol 0.125 μg/mL + labelled antibiotic at MIC of same line, S. aureus ATCC BAA-1717): 1.0
- FICI of combination with Ramizol ([2]; Ramizol 4 μg/mL + labelled antibiotic at MIC of same cell, S. aureus ATCC BAA-1717): 1.0
- Effect of individual antibiotic combinations ([2]; Ramizol and mupirocin: 0.015625 and 0.5, 0.03125 and 0.5, 0.0625 and 0.5, 0.125 and 0.5, 4 and 0.016 μg/mL): additive effect
- mean FICI of combination with Chlopam ([2]; labelled antibiotic + Chlopam, mean of all pairwise combinations, S. aureus ATCC BAA-1717): 1.2
- mean FICI of combination with Ramizol ([2]; labelled antibiotic + Ramizol, mean of all pairwise combinations, S. aureus ATCC BAA-1717): (1.2)
